Numbers after ± are expanded uncertainties.
Columns and labels:
[1] = 298.15 K, 101.33 kPa, Liquid; for viscosity: Capillary tube (Ostwald / Ubbelohde) method
[2] = refractive index (Na D-line) (dimensionless); conditions: 298.15 K; 101.33 kPa; Liquid; Standard Abbe refractometry
[3] = refractive index (Na D-line) (dimensionless); xn = mol fraction of the nth substance listed; conditions: 298.15 K, 101 kPa, Liquid, Standard Abbe refractometry
[4] = xn = mol fraction of the nth substance listed; conditions: 298.15 K, 101 kPa, Liquid; for viscosity: Capillary tube (Ostwald / Ubbelohde) method; for mass density: Vibrating tube method

## CCO [ethanol]
[1]
  mass density: 785.12 ± 0.24 kg/m3
  viscosity: 1.076 ± 0.012 mPa·s
[2]
  refractive index: 1.35937 ± 0.00031

## CCO [ethanol] + O
[3]; x2 = 0.048
  refractive index: 1.36013 ± 0.00031
[3]; x2 = 0.1116
  refractive index: 1.361 ± 0.00031
[3]; x2 = 0.1599
  refractive index: 1.3615 ± 0.00031
[3]; x2 = 0.1761
  refractive index: 1.36168 ± 0.00031
[3]; x2 = 0.2668
  refractive index: 1.36247 ± 0.00031
[3]; x2 = 0.301
  refractive index: 1.36266 ± 0.00031
[3]; x2 = 0.3994
  refractive index: 1.36295 ± 0.00031
[3]; x2 = 0.497
  refractive index: 1.3628 ± 0.00031
[3]; x2 = 0.6122
  refractive index: 1.36176 ± 0.00031
[3]; x2 = 0.7116
  refractive index: 1.35974 ± 0.00031
[3]; x2 = 0.7774
  refractive index: 1.35727 ± 0.00031
[3]; x2 = 0.8145
  refractive index: 1.3554 ± 0.00031
[3]; x2 = 0.8529
  refractive index: 1.35243 ± 0.00031
[3]; x2 = 0.8967
  refractive index: 1.34783 ± 0.00032
[3]; x2 = 0.9481
  refractive index: 1.34063 ± 0.00032
[4]; x2 = 0.048
  viscosity: 1.158 ± 0.013 mPa·s
  mass density: 791.06 ± 0.13 kg/m3
[4]; x2 = 0.1116
  viscosity: 1.261 ± 0.014 mPa·s
  mass density: 799.08 ± 0.13 kg/m3
[4]; x2 = 0.1599
  viscosity: 1.326 ± 0.015 mPa·s
  mass density: 805.32 ± 0.12 kg/m3
[4]; x2 = 0.1761
  viscosity: 1.36 ± 0.016 mPa·s
  mass density: 807.44 ± 0.12 kg/m3
[4]; x2 = 0.2668
  viscosity: 1.496 ± 0.017 mPa·s
  mass density: 820.06 ± 0.12 kg/m3
[4]; x2 = 0.301
  viscosity: 1.556 ± 0.018 mPa·s
  mass density: 825.06 ± 0.12 kg/m3
[4]; x2 = 0.3994
  viscosity: 1.726 ± 0.02 mPa·s
  mass density: 840.69 ± 0.12 kg/m3
[4]; x2 = 0.497
  viscosity: 1.932 ± 0.022 mPa·s
  mass density: 858.26 ± 0.12 kg/m3
[4]; x2 = 0.6122
  viscosity: 2.161 ± 0.024 mPa·s
  mass density: 882.42 ± 0.12 kg/m3
[4]; x2 = 0.7116
  viscosity: 2.385 ± 0.027 mPa·s
  mass density: 907.85 ± 0.13 kg/m3
[4]; x2 = 0.7774
  viscosity: 2.353 ± 0.027 mPa·s
  mass density: 926.61 ± 0.13 kg/m3
[4]; x2 = 0.8145
  viscosity: 2.366 ± 0.027 mPa·s
  mass density: 937.62 ± 0.14 kg/m3
[4]; x2 = 0.8529
  viscosity: 2.193 ± 0.025 mPa·s
  mass density: 949.42 ± 0.13 kg/m3
[4]; x2 = 0.8967
  viscosity: 1.92 ± 0.022 mPa·s
  mass density: 960.95 ± 0.13 kg/m3
[4]; x2 = 0.9481
  viscosity: 1.432 ± 0.017 mPa·s
  mass density: 976.77 ± 0.13 kg/m3

## COS(=O)(=O)[O-].C[N+](CCO)(CCO)CCO [tris(2-hydroxyethyl) methylammonium methylsulfate]
[1]
  viscosity: 1236 ± 74 mPa·s
[1]; Vibrating tube method
  mass density: 1344.13 ± 9.9 kg/m3
[2]
  refractive index: 1.48489 ± 0.001

## COS(=O)(=O)[O-].C[N+](CCO)(CCO)CCO [tris(2-hydroxyethyl) methylammonium methylsulfate] + CCO
[3]; x1 = 0.0482
  refractive index: 1.3818 ± 0.00035
[3]; x1 = 0.0981
  refractive index: 1.39899 ± 0.00036
[3]; x1 = 0.1509
  refractive index: 1.41373 ± 0.00038
[3]; x1 = 0.1994
  refractive index: 1.42476 ± 0.0004
[3]; x1 = 0.242
  refractive index: 1.43322 ± 0.00042
[3]; x1 = 0.2922
  refractive index: 1.44083 ± 0.00045
[3]; x1 = 0.3882
  refractive index: 1.45307 ± 0.00052
[3]; x1 = 0.4841
  refractive index: 1.46222 ± 0.00059
[3]; x1 = 0.5923
  refractive index: 1.4695 ± 0.00068
[3]; x1 = 0.6288
  refractive index: 1.47153 ± 0.00072
[3]; x1 = 0.6881
  refractive index: 1.47511 ± 0.00077
[3]; x1 = 0.7379
  refractive index: 1.47666 ± 0.00081
[3]; x1 = 0.7878
  refractive index: 1.47867 ± 0.00085
[3]; x1 = 0.8379
  refractive index: 1.48018 ± 0.0009
[3]; x1 = 0.8738
  refractive index: 1.48134 ± 0.00093
[3]; x1 = 0.9203
  refractive index: 1.48278 ± 0.00097
[4]; x1 = 0.0482
  viscosity: 2.26 ± 0.032 mPa·s
  mass density: 876.74 ± 0.61 kg/m3
[4]; x1 = 0.0981
  viscosity: 4.523 ± 0.058 mPa·s
  mass density: 951.17 ± 0.55 kg/m3
[4]; x1 = 0.1509
  viscosity: 8.351 ± 0.11 mPa·s
  mass density: 1014.1 ± 0.48 kg/m3
[4]; x1 = 0.1994
  viscosity: 13.32 ± 0.17 mPa·s
  mass density: 1061.07 ± 0.51 kg/m3
[4]; x1 = 0.242
  viscosity: 19.62 ± 0.26 mPa·s
  mass density: 1097.16 ± 0.6 kg/m3
[4]; x1 = 0.2922
  viscosity: 29.16 ± 0.41 mPa·s
  mass density: 1132.75 ± 0.78 kg/m3
[4]; x1 = 0.3882
  viscosity: 58.72 ± 0.88 mPa·s
  mass density: 1187.8 ± 1.3 kg/m3
[4]; x1 = 0.4841
  viscosity: 110.8 ± 2.3 mPa·s
  mass density: 1229.34 ± 2.1 kg/m3
[4]; x1 = 0.5923
  viscosity: 204.3 ± 5.8 mPa·s
  mass density: 1264.46 ± 3.2 kg/m3
[4]; x1 = 0.6288
  viscosity: 247.6 ± 7.8 mPa·s
  mass density: 1273.93 ± 3.6 kg/m3
[4]; x1 = 0.6881
  viscosity: 333.6 ± 12 mPa·s
  mass density: 1288.67 ± 4.4 kg/m3
[4]; x1 = 0.7379
  viscosity: 430.4 ± 18 mPa·s
  mass density: 1299.19 ± 5.1 kg/m3
[4]; x1 = 0.7878
  viscosity: 518.1 ± 23 mPa·s
  mass density: 1309.46 ± 5.9 kg/m3
[4]; x1 = 0.8379
  viscosity: 657.1 ± 32 mPa·s
  mass density: 1318.78 ± 6.7 kg/m3
[4]; x1 = 0.8738
  viscosity: 775.7 ± 40 mPa·s
  mass density: 1324.39 ± 7.3 kg/m3
[4]; x1 = 0.9203
  viscosity: 902.1 ± 49 mPa·s
  mass density: 1331.87 ± 8.2 kg/m3

## COS(=O)(=O)[O-].C[N+](CCO)(CCO)CCO [tris(2-hydroxyethyl) methylammonium methylsulfate] + O
[3]; x1 = 0.0478
  refractive index: 1.38887 ± 0.00046
[3]; x1 = 0.0967
  refractive index: 1.41769 ± 0.00038
[3]; x1 = 0.1939
  refractive index: 1.44581 ± 0.00039
[3]; x1 = 0.2421
  refractive index: 1.4539 ± 0.00041
[3]; x1 = 0.2894
  refractive index: 1.45949 ± 0.00044
[3]; x1 = 0.3872
  refractive index: 1.46758 ± 0.00051
[3]; x1 = 0.4858
  refractive index: 1.47335 ± 0.00059
[3]; x1 = 0.6064
  refractive index: 1.47587 ± 0.00069
[3]; x1 = 0.6698
  refractive index: 1.47878 ± 0.00074
[3]; x1 = 0.7822
  refractive index: 1.4813 ± 0.00085
[3]; x1 = 0.867
  refractive index: 1.4827 ± 0.00092
[3]; x1 = 0.9398
  refractive index: 1.48341 ± 0.00099
[4]; x1 = 0.0478
  viscosity: 2.341 ± 0.027 mPa·s
  mass density: 1129.13 ± 1 kg/m3
[4]; x1 = 0.0967
  viscosity: 5.054 ± 0.071 mPa·s
  mass density: 1195.06 ± 0.65 kg/m3
[4]; x1 = 0.1939
  viscosity: 16.79 ± 0.21 mPa·s
  mass density: 1258.48 ± 0.59 kg/m3
[4]; x1 = 0.2421
  viscosity: 27 ± 0.35 mPa·s
  mass density: 1275.98 ± 0.77 kg/m3
[4]; x1 = 0.2894
  viscosity: 41.22 ± 0.57 mPa·s
  mass density: 1288.49 ± 0.94 kg/m3
[4]; x1 = 0.3872
  viscosity: 86.07 ± 1.4 mPa·s
  mass density: 1306.02 ± 1.5 kg/m3
[4]; x1 = 0.4858
  viscosity: 159.5 ± 3.9 mPa·s
  mass density: 1317.49 ± 2.3 kg/m3
[4]; x1 = 0.6064
  viscosity: 290.1 ± 9.8 mPa·s
  mass density: 1327.14 ± 3.6 kg/m3
[4]; x1 = 0.6698
  viscosity: 390.7 ± 15 mPa·s
  mass density: 1330.96 ± 4.4 kg/m3
[4]; x1 = 0.7822
  viscosity: 569 ± 26 mPa·s
  mass density: 1336.36 ± 6 kg/m3
[4]; x1 = 0.867
  viscosity: 756.2 ± 38 mPa·s
  mass density: 1339.64 ± 7.3 kg/m3
[4]; x1 = 0.9398
  viscosity: 960.7 ± 53 mPa·s
  mass density: 1342.07 ± 8.7 kg/m3
